Here are results for two sequences from patent US11673916B2, “Neuroprotective peptides and methods of their use” (University of Pittsburgh—Of the Commonwealth System of …, priority 2020, dated 2023).

The subject of the test is MCAo mouse model of ischemic stroke. The test can be described thus: Transient middle cerebral artery occlusion (MCAo), infarct ratio by TTC staining. Type of test: in vivo. The conditions noted are these: 50 minutes MCAo, IP peptide at one and six hours after reperfusion, 24 h after reperfusion, mean±SEM (FIG. 6D). How it is done:
Mice were anesthetized with isoflurane and the common carotid artery was exposed. A single-use silicon-coated suture (MCAo suture #602256PK10; Doccol Corporation, Sharron, Mass.) was advanced 8-9 mm into the internal carotid artery, occluding the MCA. The suture was secured with 6-0 silk ligatures for 50 minutes, then removed. Twenty-four hours following cerebral reperfusion, mice were sacrificed and four 2-mm coronal brain sections were obtained from each animal. Sections were stained with 0.05% 2,3,5-triphenyltetrazolium chloride (TTC) in PBS for 30 minutes at room temperature. Brain sections were digitally scanned following staining and a blinded experimenter measured infarct ratios (infarct area/total section area) using NIH ImageJ software. Visual representation of this protocol is in FIG. 6B.
The neuroprotective efficacy of TAT-DP-2 in vivo was next tested. […]
Twenty-four hours following cerebral reperfusion after MCAo, total infarct ratios were analyzed (FIG. 6B) in tetrazolium chloride-stained brain sections (FIGS. 6B and 6C). […] A different, blinded observer then analyzed each animal and assigned an objective murine neurological score (MNS; Table 3) to each mouse over a 42-day period. As the MNS is based solely on characteristic motor deficits developed following left MCAo, all animals initially scored zero on the scale.

For the sequence “YGRKKRRQRRRDFSSIST [TAT-Sc-2, TAT-linked scramble control peptide]”, the “mean total infarct ratio” value is reported as 0.121±0.009.

As to “YGRKKRRQRRRSIDSFTS [TAT-DP-2, TAT-linked declustering peptide 2]”, the “mean total infarct ratio” value worked out at 0.071±0.020.
